The record followed here is ChEMBL document CHEMBL1944514, “Fluorescence detection of single nucleotide polymorphisms using nucleic acid probe containing tricyclic base-linked acyclonucleoside” (Bioorg Med Chem Lett, 2012).

Structures are written as SMILES. Active and inactive are the calls of the source. The rule behind the calls is not given here.

Holding throughout (assay type): nucleic-acid assay
In test [1] the test system is Nucleic Acid. The test can be described thus: Binding affinity to 3'-r(CUUCCAGUUACAUAGAGA)-5' RNA assessed as change in melting temperature by spectrophotometry.
Test [2] has as its system Nucleic Acid. The test is described as follows: Binding affinity to 3'-r(CUUCCAGUUGCAUAGAGA)-5' RNA assessed as change in melting temperature by spectrophotometry.
Test [3] concerns Nucleic Acid. The test is described as follows: Binding affinity to 3'-r(CUUCCAGUUCCAUAGAGA)-5' RNA assessed as change in melting temperature by spectrophotometry.
Test [4] has as its system Nucleic Acid. The test is described as follows: Binding affinity to 3'-r(CUUCCAGUUUCAUAGAGA)-5' RNA assessed as change in melting temperature by spectrophotometry.
Test [5] deals with Nucleic Acid. The test can be described thus: Binding affinity to 3'-r(CUUCCAGUUACAUAGAGA)-5' RNA assessed as fluorescence quenching by spectrophotometry.
Test [6] has as its system Nucleic Acid. The test is described as follows: Binding affinity to 3'-r(CUUCCAGUUGCAUAGAGA)-5' RNA assessed as fluorescence quenching by spectrophotometry.
Test [7] has as its system Nucleic Acid. The test is described as follows: Binding affinity to 3'-r(CUUCCAGUUCCAUAGAGA)-5' RNA assessed as fluorescence quenching by spectrophotometry.
Test [8] relates to Nucleic Acid. The test is described as follows: Binding affinity to 3'-r(CUUCCAGUUUCAUAGAGA)-5' RNA assessed as fluorescence quenching by spectrophotometry.

`Cc1cn([C@H]2C[C@H](OP(=O)(O)OC[C@H]3O[C@@H](n4ccc(N)nc4=O)C[C@@H]3OP(=O)(O)OC[C@H]3O[C@@H](n4cnc5c(N)ncnc54)C[C@@H]3OP(=O)(O)OC[C@H]3O[C@@H](n4cnc5c(N)ncnc54)C[C@@H]3OP(=O)(O)OC[C@H](Cn3cnc4cc5c(N)nc(N)nc5nc43)OP(=O)(O)OC[C@H]3O[C@@H](n4cnc5c(=O)[nH]c(N)nc54)C[C@@H]3OP(=O)(O)OC[C@H]3O[C@@H](n4cnc5c(=O)[nH]c(N)nc54)C[C@@H]3OP(=O)(O)CC[C@H]3O[C@@H](n4cc(C)c(=O)[nH]c4=O)C[C@@H]3OP(=O)(O)OC[C@H]3O[C@@H](n4cnc5c(N)ncnc54)C[C@@H]3OP(=O)(O)OC[C@H]3O[C@@H](n4cc(C)c(=O)[nH]c4=O)C[C@@H]3OP(=O)(O)OC[C@H]3O[C@@H](n4ccc(N)nc4=O)C[C@@H]3OP(=O)(O)OC[C@H]3O[C@@H](n4cc(C)c(=O)[nH]c4=O)C[C@@H]3OP(=O)(O)OC[C@H]3O[C@@H](n4ccc(N)nc4=O)C[C@@H]3OP(=O)(O)OC[C@H]3O[C@@H](n4cc(C)c(=O)[nH]c4=O)C[C@@H]3O)[C@@H](COP(=O)(O)O[C@H]3C[C@H](n4cnc5c(=O)[nH]c(N)nc54)O[C@@H]3COP(=O)(O)O[C@H]3C[C@H](n4cnc5c(=O)[nH]c(N)nc54)O[C@@H]3COP(=O)(O)O[C@H]3C[C@H](n4cnc5c(N)ncnc54)O[C@@H]3COP(=O)(O)O[C@H]3C[C@H](n4cnc5c(N)ncnc54)O[C@@H]3COP(=O)(O)O[C@H]3C[C@H](n4cnc5c(=O)[nH]c(N)nc54)O[C@@H]3CO)O2)c(=O)nc1N`: the ΔTm – broadly, the change in melting temperature against a reference sample – was -5.9 °C with Nucleic Acid [1], -4.3 °C with Nucleic Acid [2] and -4.6 °C in the test on Nucleic Acid [4]. Moreover, the result in the test on Nucleic Acid [3] and in the test with Nucleic Acid [7] was inactive. Moreover, the result with Nucleic Acid [5], in the test on Nucleic Acid [6] and in the test on Nucleic Acid [8] was Active.
On to `Cc1cn([C@H]2C[C@H](OP(=O)(O)OC[C@H]3O[C@@H](n4ccc(N)nc4=O)C[C@@H]3OP(=O)(O)OC[C@H]3O[C@@H](n4cnc5c(N)ncnc54)C[C@@H]3OP(=O)(O)OC[C@H]3O[C@@H](n4cnc5c(N)ncnc54)C[C@@H]3OP(=O)(O)OC[C@H](Cn3cnc4cc5c(N)nc(N)nc5nc43)OP(=O)(O)OC[C@H]3O[C@@H](n4cc(C)c(=O)[nH]c4=O)C[C@@H]3OP(=O)(O)OC[C@H]3O[C@@H](n4cnc5c(=O)[nH]c(N)nc54)C[C@@H]3OP(=O)(O)CC[C@H]3O[C@@H](n4cc(C)c(=O)[nH]c4=O)C[C@@H]3OP(=O)(O)OC[C@H]3O[C@@H](n4cnc5c(N)ncnc54)C[C@@H]3OP(=O)(O)OC[C@H]3O[C@@H](n4cc(C)c(=O)[nH]c4=O)C[C@@H]3OP(=O)(O)OC[C@H]3O[C@@H](n4ccc(N)nc4=O)C[C@@H]3OP(=O)(O)OC[C@H]3O[C@@H](n4cc(C)c(=O)[nH]c4=O)C[C@@H]3OP(=O)(O)OC[C@H]3O[C@@H](n4ccc(N)nc4=O)C[C@@H]3OP(=O)(O)OC[C@H]3O[C@@H](n4cc(C)c(=O)[nH]c4=O)C[C@@H]3O)[C@@H](COP(=O)(O)O[C@H]3C[C@H](n4cnc5c(=O)[nH]c(N)nc54)O[C@@H]3COP(=O)(O)O[C@H]3C[C@H](n4cnc5c(=O)[nH]c(N)nc54)O[C@@H]3COP(=O)(O)O[C@H]3C[C@H](n4cnc5c(N)ncnc54)O[C@@H]3COP(=O)(O)O[C@H]3C[C@H](n4cnc5c(N)ncnc54)O[C@@H]3COP(=O)(O)O[C@H]3C[C@H](n4cnc5c(=O)[nH]c(N)nc54)O[C@@H]3CO)O2)c(=O)nc1N`, for which the outcome in the test on Nucleic Acid [1], in the test on Nucleic Acid [5] and with Nucleic Acid [6] was inactive. The values for the shift in melting temperature (ΔTm) with Nucleic Acid [2], in the test on Nucleic Acid [3] and in the test with Nucleic Acid [4] were -1.9 °C, -3.5 °C and -1.8 °C, respectively. Besides, the outcome in the test on Nucleic Acid [7] and in the test on Nucleic Acid [8] was Active.
With `Cc1cn([C@H]2C[C@H](OP(=O)(O)OC[C@H]3O[C@@H](n4ccc(N)nc4=O)C[C@@H]3OP(=O)(O)OC[C@H]3O[C@@H](n4cnc5c(N)ncnc54)C[C@@H]3OP(=O)(O)OC[C@H]3O[C@@H](n4cnc5c(N)ncnc54)C[C@@H]3OP(=O)(O)OC[C@H]3O[C@@H](n4ccc(N)nc4=O)C[C@@H]3OP(=O)(O)OC[C@H](Cn3cnc4cc5c(N)ncnc5nc43)OP(=O)(O)OC[C@H]3O[C@@H](n4cnc5c(=O)[nH]c(N)nc54)C[C@@H]3OP(=O)(O)CC[C@H]3O[C@@H](n4cc(C)c(=O)[nH]c4=O)C[C@@H]3OP(=O)(O)OC[C@H]3O[C@@H](n4cnc5c(N)ncnc54)C[C@@H]3OP(=O)(O)OC[C@H]3O[C@@H](n4cc(C)c(=O)[nH]c4=O)C[C@@H]3OP(=O)(O)OC[C@H]3O[C@@H](n4ccc(N)nc4=O)C[C@@H]3OP(=O)(O)OC[C@H]3O[C@@H](n4cc(C)c(=O)[nH]c4=O)C[C@@H]3OP(=O)(O)OC[C@H]3O[C@@H](n4ccc(N)nc4=O)C[C@@H]3OP(=O)(O)OC[C@H]3O[C@@H](n4cc(C)c(=O)[nH]c4=O)C[C@@H]3O)[C@@H](COP(=O)(O)O[C@H]3C[C@H](n4cnc5c(=O)[nH]c(N)nc54)O[C@@H]3COP(=O)(O)O[C@H]3C[C@H](n4cnc5c(=O)[nH]c(N)nc54)O[C@@H]3COP(=O)(O)O[C@H]3C[C@H](n4cnc5c(N)ncnc54)O[C@@H]3COP(=O)(O)O[C@H]3C[C@H](n4cnc5c(N)ncnc54)O[C@@H]3COP(=O)(O)O[C@H]3C[C@H](n4cnc5c(=O)[nH]c(N)nc54)O[C@@H]3CO)O2)c(=O)nc1N`, the result in the test on Nucleic Acid [5], with Nucleic Acid [6], with Nucleic Acid [7] and in the test on Nucleic Acid [8] was Active.
In the case of `Cc1cn([C@H]2C[C@H](OP(=O)(O)OC[C@H]3O[C@@H](n4ccc(N)nc4=O)C[C@@H]3OP(=O)(O)OC[C@H]3O[C@@H](n4cnc5c(N)ncnc54)C[C@@H]3OP(=O)(O)OC[C@H]3O[C@@H](n4cnc5c(N)ncnc54)C[C@@H]3OP(=O)(O)OC[C@H](Cn3cnc4cc5c(N)ncnc5nc43)OP(=O)(O)OC[C@H]3O[C@@H](n4cnc5c(N)ncnc54)C[C@@H]3OP(=O)(O)OC[C@H]3O[C@@H](n4cnc5c(=O)[nH]c(N)nc54)C[C@@H]3OP(=O)(O)CC[C@H]3O[C@@H](n4cc(C)c(=O)[nH]c4=O)C[C@@H]3OP(=O)(O)OC[C@H]3O[C@@H](n4cnc5c(N)ncnc54)C[C@@H]3OP(=O)(O)OC[C@H]3O[C@@H](n4cc(C)c(=O)[nH]c4=O)C[C@@H]3OP(=O)(O)OC[C@H]3O[C@@H](n4ccc(N)nc4=O)C[C@@H]3OP(=O)(O)OC[C@H]3O[C@@H](n4cc(C)c(=O)[nH]c4=O)C[C@@H]3OP(=O)(O)OC[C@H]3O[C@@H](n4ccc(N)nc4=O)C[C@@H]3OP(=O)(O)OC[C@H]3O[C@@H](n4cc(C)c(=O)[nH]c4=O)C[C@@H]3O)[C@@H](COP(=O)(O)O[C@H]3C[C@H](n4cnc5c(=O)[nH]c(N)nc54)O[C@@H]3COP(=O)(O)O[C@H]3C[C@H](n4cnc5c(=O)[nH]c(N)nc54)O[C@@H]3COP(=O)(O)O[C@H]3C[C@H](n4cnc5c(N)ncnc54)O[C@@H]3COP(=O)(O)O[C@H]3C[C@H](n4cnc5c(N)ncnc54)O[C@@H]3COP(=O)(O)O[C@H]3C[C@H](n4cnc5c(=O)[nH]c(N)nc54)O[C@@H]3CO)O2)c(=O)nc1N`, the result in the test with Nucleic Acid [5], in the test on Nucleic Acid [6] and in the test on Nucleic Acid [7] was Active. In addition, the result with Nucleic Acid [8] was inactive.
